This passage reports IC50 results from patent publication US12240844B2 (Voronoi, Inc., priority 2019, dated 2025).

Assay type in all cases: biochemical
One assay addresses T1, human GST-CLK1 (129-end) (Homo sapiens, UniProt P49759).
T1 construct: purified human GST-CLK1 (129-end, Signalchem) enzyme; GST; purchased Signalchem
Kind of assay: GST-CLK1 enzyme inhibition, ADP-Glo kinase assay. As to conditions: ATP 10 uM. In short, it runs like this:
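ADP formation was read by ADP-Glo luminescence after 1 h at 25° C with 3 ng human GST-CLK1 (129-end), substrate and 10 uM ATP in Tris pH 7.4 buffer containing MgCl2, BSA and DTT. Inhibition relative to untreated solvent control gave IC50 (nM), run in triplicate.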
On the technique in general: ADP-Glo first removes unused ATP, then detects ADP through luciferase.

Another assay deals with T2, TTK (Homo sapiens, UniProt P33981).
T2 sequence (P33981 1-857): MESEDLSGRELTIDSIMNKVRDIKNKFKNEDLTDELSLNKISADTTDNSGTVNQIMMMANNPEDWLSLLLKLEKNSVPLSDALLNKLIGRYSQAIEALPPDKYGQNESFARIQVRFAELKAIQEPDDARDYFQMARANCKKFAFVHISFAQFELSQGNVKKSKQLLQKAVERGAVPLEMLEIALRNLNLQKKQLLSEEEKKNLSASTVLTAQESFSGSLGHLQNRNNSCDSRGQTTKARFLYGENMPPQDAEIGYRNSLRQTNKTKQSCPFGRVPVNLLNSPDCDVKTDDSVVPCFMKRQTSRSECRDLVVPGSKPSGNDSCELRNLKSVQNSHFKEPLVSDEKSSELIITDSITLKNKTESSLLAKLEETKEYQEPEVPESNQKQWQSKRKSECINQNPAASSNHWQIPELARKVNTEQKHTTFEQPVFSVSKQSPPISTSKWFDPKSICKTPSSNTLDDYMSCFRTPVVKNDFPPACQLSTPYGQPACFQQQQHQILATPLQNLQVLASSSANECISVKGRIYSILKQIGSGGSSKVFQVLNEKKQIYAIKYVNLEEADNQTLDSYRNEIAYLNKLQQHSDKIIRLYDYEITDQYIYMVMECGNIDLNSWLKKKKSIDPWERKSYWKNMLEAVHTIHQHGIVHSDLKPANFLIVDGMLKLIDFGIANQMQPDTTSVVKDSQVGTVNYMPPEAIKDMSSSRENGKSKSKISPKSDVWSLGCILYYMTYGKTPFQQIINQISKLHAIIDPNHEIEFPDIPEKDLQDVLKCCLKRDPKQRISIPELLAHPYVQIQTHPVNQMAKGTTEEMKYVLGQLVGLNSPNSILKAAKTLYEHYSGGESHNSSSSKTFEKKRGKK
Kind of assay: TTK enzyme inhibition, ADP-Glo kinase assay. Further details: purchased Signalchem T20-10G. Conditions: ATP 5 μM. In short, it runs like this: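 Recombinant human TTK (7.5 ng) reacted with 5 μM ATP and MBP substrate (0.2 μg) for 4 h at 25° C in Tris-HCl pH 7.4, MgCl2, BSA, DTT buffer, compound at 0.000017–1 μM. ADP formation by ADP-Glo luminescence; IC50 (nM) relative to solvent control.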

Assay [1] addresses T3, human GST-DYRK1A (full length) (Homo sapiens, UniProt Q13627).
T3 construct: purified human GST-DYRK1A (full length, Thermo scientifics) enzyme; GST; purchased Thermo scientifics
Kind of assay: GST-DYRK1A enzyme inhibition, ADP-Glo kinase assay. Conditions: read-out: DYRK1 IC50. A digest of the protocol: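 ADP-Glo luminescence quantified kinase activity after a 1 h, 25° C reaction of 10 ng full-length GST-tagged human DYRK1A, substrate and 10 uM ATP in Tris-HCl buffer pH 7.4 with MgCl2, BSA and DTT. Triplicate IC50 values (nM) calculated relative to untreated solvent control.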

As usually defined, the IC50 is the concentration that inhibits the measured activity by half.

T1 sequence (P49759 129-484 limits assumed): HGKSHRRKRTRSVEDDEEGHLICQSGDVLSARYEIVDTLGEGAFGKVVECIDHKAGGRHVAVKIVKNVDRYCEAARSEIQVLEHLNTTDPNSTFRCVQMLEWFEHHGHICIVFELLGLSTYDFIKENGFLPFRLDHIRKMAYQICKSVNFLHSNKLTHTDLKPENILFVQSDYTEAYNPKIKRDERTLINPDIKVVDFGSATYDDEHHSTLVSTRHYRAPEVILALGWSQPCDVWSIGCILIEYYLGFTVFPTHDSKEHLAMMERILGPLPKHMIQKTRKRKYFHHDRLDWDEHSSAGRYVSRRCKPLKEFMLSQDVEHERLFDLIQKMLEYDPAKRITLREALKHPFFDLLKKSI

Consider `CNc1cc(Nc2ccc(C(=O)N3CC[C@@H](N4CCOCC4)C3)c3c2OCC3)nc2[nH]cc(C(F)(F)F)c12` [Example 214, (R)-(7-((4-(methylamino)-3-(trifluoromethyl)-1H-pyrrolo[2,3-b]pyridin-6-yl)amino)-2,3-dihydrobenzofuran-4-yl)(3-morpholinopyrrolidin-1-yl)methanone], for which the IC50 at human GST-CLK1 (129-end) is under 100 nM; at TTK it was 101 to 300 nM; in assay [1], under 100 nM.

As to `COCCNc1cc(Nc2ccc(C(=O)N3CCC(N4CCOCC4)CC3)c3c2OCC3)nc2[nH]cc(C(F)(F)F)c12` [Example 55, (7-((4-((2-methoxyethyl)amino)-3-(trifluoromethyl)-1H-pyrrolo[2,3-b]pyridin-6-yl)amino)-2,3-dihydrobenzofuran-4-yl)(4-morpholinopiperidin-1-yl)methanone], the IC50 against human GST-CLK1 (129-end) was under 100 nM; against TTK, 101 to 300 nM; in assay [1], under 100 nM.

As for `CCNc1cc(Nc2ccc(C(=O)N3CCC(N4CCOCC4)CC3)c3c2OCC3)nc2[nH]cc(C(F)(F)F)c12` [Example 90, (7-((4-(ethylamino)-3-(trifluoromethyl)-1H-pyrrolo[2,3-b]pyridin-6-yl)amino)-2,3-dihydrobenzofuran-4-yl)(4-morpholinopiperidin-1-yl)methanone], the IC50 (at human GST-CLK1 (129-end); at TTK; in assay [1]) was under 100 nM throughout.

For the compound `COCCNc1cc(Nc2ccc(P3(=O)CCN(C4CC4)CC3)cc2OC)nc2[nH]cc(C(F)(F)F)c12` [Example 207, 1-cyclopropyl-4-(3-methoxy-4-((4-((2-methoxyethyl)amino)-3-(trifluoromethyl)-1H-pyrrolo[2,3-b]pyridin-6-yl)amino)phenyl)-1,4-azaphosphinane 4-oxide], the values for the IC50 (at human GST-CLK1 (129-end); against TTK; in assay [1]) were 101 to 300 nM, under 100 nM and under 100 nM, respectively.

With `CCNc1cc(Nc2ccc(P3(=O)CCN(C(C)=O)CC3)cc2OC)nc2[nH]cc(C(F)(F)F)c12` [Example 42, 1-(4-(4-((4-(ethylamino)-3-(trifluoromethyl)-1H-pyrrolo[2,3-b]pyridin-6-yl)amino)-3-methoxyphenyl)-4-oxido-1,4-azaphosphinan-1-yl)ethan-1-one], the IC50 against human GST-CLK1 (129-end) was 101 to 300 nM; at TTK it was under 100 nM; in assay [1], under 100 nM.

Turning to `CCNc1cc(Nc2ccc(C(=O)N3CCC(N4C[C@@H]5C[C@H]4CO5)CC3)c3c2OCC3)nc2[nH]cc(C(F)(F)F)c12` [Example 105, (4-((1S,4S)-2-oxa-5-azabicyclo[2.2.1]heptan-5-yl)piperidin-1-yl)(7-((4-(ethylamino)-3-(trifluoromethyl)-1H-pyrrolo[2,3-b]pyridin-6-yl)amino)-2,3-dihydrobenzofuran-4-yl)methanone], the 50% inhibitory concentration (IC50) (against human GST-CLK1 (129-end); against TTK; in assay [1]) was under 100 nM throughout.

Regarding `CNc1cc(Nc2ccc(C(=O)N3CCC(N4C[C@@H]5C[C@H]4CO5)CC3)c3c2OCC3)nc2[nH]cc(C(F)(F)F)c12` [Example 241, (4-((1S,4S)-2-oxa-5-azabicyclo[2.2.1]heptan-5-yl)piperidin-1-yl)(7-((4-(methylamino)-3-(trifluoromethyl)-1H-pyrrolo[2,3-b]pyridin-6-yl)amino)-2,3-dihydrobenzofuran-4-yl)methanone], the IC50 (at human GST-CLK1 (129-end); on TTK; in assay [1]) was under 100 nM throughout.

Take `O=C(c1ccc(Nc2cc(C3CC3)c3c(C(F)(F)F)c[nH]c3n2)c2c1OCCO2)N1CCOCC1` [Example 220, (8-((4-cyclopropyl-3-(trifluoromethyl)-1H-pyrrolo[2,3-b]pyridin-6-yl)amino)-2,3-dihydrobenzo[b] [1,4]dioxin-5-yl)(morpholino) methanone]: the IC50 was 301 to 1000 nM against human GST-CLK1 (129-end), under 100 nM against TTK and 301 to 1000 nM in assay [1].

Turning to `CNc1cc(Nc2ccc(S(=O)(=O)N3CCC(N4CCOCC4)CC3)c3c2OCCO3)nc2[nH]cc(C(F)(F)F)c12` [Example 233, N^4-methyl-N^6-(8-((4-morpholinopiperidin-1-yl)sulfonyl)-2,3-dihydrobenzo [b] [1,4]dioxin-5-yl)-3-(trifluoromethyl)-1H-pyrrolo[2,3-b]pyridine-4,6-diamine], the IC50 against human GST-CLK1 (129-end) is under 100 nM; against TTK it was 101 to 300 nM; in assay [1], 101 to 300 nM.
